Each structure is given as a SMILES string.

The term logP denotes a log measure of how a compound divides between an organic and an aqueous phase. Read a high logP as a more lipophilic compound.

A short description of series [1]: logP by HPLC on reversed-phase column (C 18), EEC Directive 79/831 Annex V.A8. Format: physicochemical. As for the experimental part: In table 1, the logP values were determined in accordance with EEC Directive 79/831 Annex V.A8 by HPLC (High Performance Liquid Chromatography) on a reversed-phase column (C 18), using the method described below: Temperature: 40° C.; […]

Series [2] has as its system Fusarium graminearum. Put plainly: microbe, parasite or virus in culture. Conditions: 50 μM. Format: cell-based.
Series [3] has as its system Alternaria solani. Briefly: In vivo preventive test on Alternaria solani (tomato). The settings on record: 500 ppm of active ingredient, evaluated 7 days after inoculation. The source says:
One day after this treatment, the plants are inoculated with an aqueous spore suspension of Alternaria solani.

Series [4] deals with Pyrenophora teres. Briefly: In vivo preventive test on Pyrenophora teres (barley). Conditions: 500 ppm of active ingredient, evaluated 7-9 days after inoculation. The source says: One day after this treatment, the plants are inoculated with an aqueous spore suspension of Pyrenophora teres.
Series [5] has as its system aflatoxines production. Briefly: microbe, parasite or virus in culture. It counts as cell-based, Aspergillus parasiticus. The settings on record: 50 μM.

For `CN(CCc1ccc(C(C)(C)C)cc1)C(=O)c1c(C(F)F)nn(C)c1F` [Example 138], in series [1], the log partition coefficient (logP) is 3.78. Moreover, the “% Inhibition of fungal growth at 50 μM” value in series [2] came to 80%. The results for the Efficacy in series [3] and in series [4] were 100% and 95%, respectively. Further, the “% Inhibition of Aflatoxin at 50 μM” value in series [5] turned out to be 100%.

Regarding `CC(CNC(=O)c1c(C(F)F)nn(C)c1F)c1cccc(Cl)c1` (stereo not shown) [Example 51], the logP in series [1] amounted to 3.02. Also, in series [2], the “% Inhibition of fungal growth at 50 μM” value came to 100%. Also, the Efficacy in series [3] and in series [4] was 100% in each case. Further, the “% Inhibition of Aflatoxin at 50 μM” value in series [5] amounted to 100%.

In the case of `CCN(CCc1ccc(Cl)cc1)C(=O)c1c(C(F)F)nn(C)c1F` [Example 56], in series [1], the lipophilicity (logP) is on record as 3.19. The “% Inhibition of fungal growth at 50 μM” value in series [2] worked out at 93%. Besides, the Efficacy in series [3] and in series [4] was 100% each time. Moreover, the “% Inhibition of Aflatoxin at 50 μM” value in series [5] worked out at 100%.

`Cn1nc(C(F)F)c(C(=O)NC[Si](C)(C)c2cc(Cl)cc(Cl)c2)c1F` [Example 244] returned a lipophilicity (logP) in series [1] of 4.08. In addition, in series [2], the “% Inhibition of fungal growth at 50 μM” value was found to be 100%. In addition, the Efficacy in series [3] came to 100%; in series [4] it was 95%. Besides, in series [5], the “% Inhibition of Aflatoxin at 50 μM” value worked out at 100%.

In turn, `Cn1nc(C(F)F)c(C(=O)N(C[Si](C)(C)c2ccsc2)C2CC2)c1Cl` [Example 247] gave a logP in series [1] of 3.71. The “% Inhibition of fungal growth at 50 μM” value in series [2] was determined as 100%. In addition, the Efficacy amounted to 94% in series [3] and 100% in series [4]. For the same molecule, the “% Inhibition of Aflatoxin at 50 μM” value in series [5] is 100%.

In series [1], `CC(CNC(=O)c1c(C(F)F)nn(C)c1Cl)c1cc(Cl)cc(Cl)c1` (stereo not shown) [Example 112] had a lipophilicity (logP) of 3.73. In addition, in series [2], the “% Inhibition of fungal growth at 50 μM” value is recorded as 83%. Moreover, the Efficacy in series [3] came to 95%; in series [4], 100%. Further, the “% Inhibition of Aflatoxin at 50 μM” value in series [5] is 100%.

`Cn1nc(C(F)F)c(C(=O)NCCc2c(Cl)cccc2Cl)c1Cl` [Example 118]: in series [1], the logP is on record as 3.21. Further, the “% Inhibition of fungal growth at 50 μM” value in series [2] is given as 81%. In addition, the results for the Efficacy in series [3] and in series [4] were 90% and 94%, respectively. In addition, the “% Inhibition of Aflatoxin at 50 μM” value in series [5] is 100%.

With `Cn1nc(C(F)F)c(C(=O)NCCc2cc(Cl)ccc2Cl)c1Cl` [Example 91], in series [1], the logP is 3.29. Further, the “% Inhibition of fungal growth at 50 μM” value in series [2] is 100%. Also, the results for the Efficacy in series [3] and in series [4] were 95% and 100%, respectively. Also, the “% Inhibition of Aflatoxin at 50 μM” value in series [5] was found to be 100%.

In the case of `CC(C)C(CNC(=O)c1c(C(F)F)nn(C)c1F)c1ccc(Cl)cc1` (stereo not shown) [Example 60], in series [1], the logP came out at 3.78. Further, the “% Inhibition of fungal growth at 50 μM” value in series [2] is reported as 96%. Also, the Efficacy in series [3] and in series [4] was 100% throughout. In addition, in series [5], the “% Inhibition of Aflatoxin at 50 μM” value came out at 100%.

`Cn1nc(C(F)F)c(C(=O)NCCc2cc(Cl)cc(Cl)c2)c1F` [Example 103]: in series [1], the logP came to 3.25. The “% Inhibition of fungal growth at 50 μM” value in series [2] stood at 99%. Besides, the Efficacy in series [3] came out at 90%; in series [4], 100%. Moreover, in series [5], the “% Inhibition of Aflatoxin at 50 μM” value is 100%.

Molecule `CC(CN(C(=O)c1c(C(F)F)nn(C)c1Cl)C1CC1)c1ccccc1` (stereo not shown) [Example 14] displayed a logP in series [1] of 3.31. The “% Inhibition of fungal growth at 50 μM” value in series [2] is listed as 100%. Also, the Efficacy in series [3] and in series [4] was 100% in each case. In addition, the “% Inhibition of Aflatoxin at 50 μM” value in series [5] is given as 100%.

Regarding `Cc1ccsc1CCNC(=O)c1c(C(F)F)nn(C)c1F` [Example 164], in series [1], the log partition coefficient (logP) came out at 2.49. Moreover, the “% Inhibition of fungal growth at 50 μM” value in series [2] is reported as 95%. Moreover, the Efficacy was 95% in series [3] and 100% in series [4]. Besides, the “% Inhibition of Aflatoxin at 50 μM” value in series [5] is given as 100%.

In series [1], `CC(Cc1ccc(Oc2ccccc2)cc1)NC(=O)c1c(C(F)F)nn(C)c1Cl` (stereo not shown) [Example 154] displayed a logP of 3.83. For the same molecule, the “% Inhibition of fungal growth at 50 μM” value in series [2] amounted to 80%. The Efficacy in series [3] and in series [4] was 100% in each case. Moreover, the “% Inhibition of Aflatoxin at 50 μM” value in series [5] was 99%.

On to `Cn1nc(C(F)F)c(C(=O)NCCc2ccsc2Br)c1Cl` [Example 165], for which the logP in series [1] is given as 2.82. Besides, the “% Inhibition of fungal growth at 50 μM” value in series [2] was found to be 81%. Moreover, the Efficacy in series [3] amounted to 90%; in series [4] it was 95%. For the same molecule, the “% Inhibition of Aflatoxin at 50 μM” value in series [5] was 99%.

In turn, `CCC(CNC(=O)c1c(C(F)F)nn(C)c1F)c1ncc(C(F)(F)F)cc1Cl` (stereo not shown) [Example 192] displayed a logP in series [1] of 3.52. In addition, the “% Inhibition of fungal growth at 50 μM” value in series [2] is 100%. Also, the Efficacy in series [3] and in series [4] was 100% throughout. Further, the “% Inhibition of Aflatoxin at 50 μM” value in series [5] is reported as 100%.

With `CC(CNC(=O)c1c(C(F)F)nn(C)c1F)c1cccc(C(F)(F)F)c1` (stereo not shown) [Example 126], the lipophilicity (logP) in series [1] is 3.23. Besides, the “% Inhibition of fungal growth at 50 μM” value in series [2] was determined as 98%. In addition, the Efficacy in series [3] was determined as 90%; in series [4] it was 100%. Besides, the “% Inhibition of Aflatoxin at 50 μM” value in series [5] stood at 100%.

`Cc1c(CCNC(=O)c2c(C(F)F)nn(C)c2Cl)sc2ccccc12` [Example 172] registered a logP in series [1] of 3.46. For the same molecule, the “% Inhibition of fungal growth at 50 μM” value in series [2] is on record as 85%. Further, the Efficacy in series [3] and in series [4] was 100% throughout. Moreover, the “% Inhibition of Aflatoxin at 50 μM” value in series [5] came to 100%.

In series [1], `CC(CNC(=O)c1c(C(F)F)nn(C)c1Cl)c1ccc(Cl)cc1Cl` (stereo not shown) [Example 85] registered a logP of 3.67. Also, in series [2], the “% Inhibition of fungal growth at 50 μM” value is reported as 100%. In addition, the Efficacy in series [3] and in series [4] was 100% each time. The “% Inhibition of Aflatoxin at 50 μM” value in series [5] is 100%.

On to `CC(CNC(=O)c1c(C(F)F)nn(C)c1Cl)c1ccccc1Cl` (stereo not shown) [Example 40], for which the lipophilicity (logP) in series [1] was found to be 3.15. For the same molecule, the “% Inhibition of fungal growth at 50 μM” value in series [2] was 78%. Further, the figures for the Efficacy in series [3] and in series [4] were 100% and 94%, respectively. Also, the “% Inhibition of Aflatoxin at 50 μM” value in series [5] is on record as 99%.

In turn, `Cn1nc(C(F)F)c(C(=O)NC[Si](C)(C)c2cc(Cl)cc(Cl)c2)c1Cl` [Example 243] had a logP in series [1] of 4.27. In series [2], the “% Inhibition of fungal growth at 50 μM” value is recorded as 84%. In addition, the Efficacy came out at 95% in series [3] and 100% in series [4]. Further, the “% Inhibition of Aflatoxin at 50 μM” value in series [5] came to 99%.

Molecule `Cn1nc(C(F)F)c(C(=O)NCCc2cc(Cl)cc(Cl)c2)c1Cl` [Example 105] came in with a logP in series [1] of 3.42. For the same molecule, the “% Inhibition of fungal growth at 50 μM” value in series [2] turned out to be 95%. The Efficacy in series [3] is 95%; in series [4], 94%. Further, the “% Inhibition of Aflatoxin at 50 μM” value in series [5] was determined as 100%.

In series [1], `CC(CNC(=O)c1c(C(F)F)nn(C)c1Cl)c1cc(Cl)ccc1Cl` (stereo not shown) [Example 98] gave a logP of 3.55. The “% Inhibition of fungal growth at 50 μM” value in series [2] stood at 95%. Also, the Efficacy in series [3] is on record as 95%; in series [4], 94%. Further, the “% Inhibition of Aflatoxin at 50 μM” value in series [5] came out at 100%.

In series [1], `CN(CCc1ccccc1Cl)C(=O)c1c(C(F)F)nn(C)c1Cl` [Example 36] yielded a logP of 2.92. For the same molecule, in series [2], the “% Inhibition of fungal growth at 50 μM” value was 94%. In addition, the Efficacy in series [3] is reported as 100%; in series [4] it was 95%. In addition, in series [5], the “% Inhibition of Aflatoxin at 50 μM” value amounted to 100%.

These data come from patent publication US9232799B2, “N-[(het)arylethyl)] pyrazole(thio)carboxamides and their heterosubstituted analogues” (BAYER INTELLECTUAL PROPERTY GMBH, priority 2010, dated 2016).
